Patent publication US11541050B2, “Pyrimidine derivatives for the treatment of viral infections” (JANSSEN SCIENCES IRELAND UC, priority 2011, dated 2023)

Key:
[1] = molecular target: T1, human TLR7 (wild type sequence) (Homo sapiens, UniProt Q9NYK1); assay: TLR7 cellular NFκB-luc reporter assay, wild type TLR7; format: cell-based; parameters: unit not given here; conditions: lowest effective concentration, wild type TLR7 (compounds 74 onward)
T1 construct: expressed in transfected cells; host or cells: HEK293
T1 sequence (Q9NYK1 27-1049): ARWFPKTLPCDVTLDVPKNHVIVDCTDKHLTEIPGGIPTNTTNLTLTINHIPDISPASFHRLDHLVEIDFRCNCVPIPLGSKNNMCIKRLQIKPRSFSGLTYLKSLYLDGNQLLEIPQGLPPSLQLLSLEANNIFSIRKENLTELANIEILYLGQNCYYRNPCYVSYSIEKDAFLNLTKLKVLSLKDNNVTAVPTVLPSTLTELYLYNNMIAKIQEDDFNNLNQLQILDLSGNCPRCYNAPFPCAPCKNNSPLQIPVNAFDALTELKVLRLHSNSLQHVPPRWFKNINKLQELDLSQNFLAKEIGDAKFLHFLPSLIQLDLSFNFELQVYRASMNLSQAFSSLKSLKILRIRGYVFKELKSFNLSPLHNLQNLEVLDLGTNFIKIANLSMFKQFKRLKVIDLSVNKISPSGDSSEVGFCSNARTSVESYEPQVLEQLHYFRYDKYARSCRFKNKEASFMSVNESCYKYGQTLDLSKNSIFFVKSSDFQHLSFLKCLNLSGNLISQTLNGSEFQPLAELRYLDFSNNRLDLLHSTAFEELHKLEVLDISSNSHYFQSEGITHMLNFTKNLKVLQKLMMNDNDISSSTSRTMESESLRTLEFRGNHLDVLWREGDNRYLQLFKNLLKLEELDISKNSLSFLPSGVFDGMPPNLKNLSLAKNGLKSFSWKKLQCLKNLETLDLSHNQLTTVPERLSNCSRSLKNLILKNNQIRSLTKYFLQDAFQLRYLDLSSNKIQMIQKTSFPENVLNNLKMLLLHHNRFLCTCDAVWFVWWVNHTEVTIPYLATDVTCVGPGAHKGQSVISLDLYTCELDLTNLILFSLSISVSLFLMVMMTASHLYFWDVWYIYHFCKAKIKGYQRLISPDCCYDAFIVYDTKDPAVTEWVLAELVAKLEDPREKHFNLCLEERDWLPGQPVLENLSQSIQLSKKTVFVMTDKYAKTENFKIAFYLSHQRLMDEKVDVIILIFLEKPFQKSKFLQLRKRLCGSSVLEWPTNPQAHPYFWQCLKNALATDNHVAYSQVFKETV
Protocol: (§1) The ability of compounds to activate human TLR7 and/or TLR8 was assessed in a cellular reporter assay using HEK293 cells transiently transfected with a TLR7 or TLR8 expression vector and NFκB-luc reporter construct. In one instance the TLR expression construct expresses the respective wild type sequence or a mutant sequence comprising a deletion in the second leucine-rich repeat of the TLR.
(§2) Briefly, HEK293 cells were grown in culture medium (DMEM supplemented with 10% FCS and 2 mM Glutamine). For transfection of cells in 10 cm dishes, cells were detached with Trypsin-EDTA, transfected with a mix of CMV-TLR7 or TLR8 plasmid (750 ng), NFκB-luc plasmid (375 ng) and a transfection reagent and incubated for 48 hours at 37° C. in a humidified 5% CO2 atmosphere. Transfected cells were then detached with Trypsin-EDTA, washed in PBS and resuspended in medium to a density of 1.67×10^5 cells/mL. Thirty microliters of cells were then dispensed into each well in 384-well plates, where 10 μL of compound in 4% DMSO was already present. Following 6 hours incubation at 37° C., 5% CO2, the luciferase activity was determined by adding 15 μl of Steady Lite Plus substrate (Perkin Elmer) to each well and readout performed on a ViewLux ultraHTS microplate imager (Perkin Elmer). Dose response curves were generated from measurements performed in quadruplicates. Lowest effective concentrations (LEC) values, defined as the concentration that induces an effect which is at least two fold above the standard deviation of the assay, were determined for each compound.

[2] = molecular target: T2, human TLR8 (wild type sequence) (Homo sapiens, UniProt Q9NR97); assay: TLR8 cellular NFκB-luc reporter assay, wild type TLR8; format: cell-based; parameters: unit not given here; conditions: lowest effective concentration, wild type TLR8 (compounds 74 onward)
T2 construct: expressed in transfected cells; host or cells: HEK293
T2 sequence (Q9NR97 27-1041): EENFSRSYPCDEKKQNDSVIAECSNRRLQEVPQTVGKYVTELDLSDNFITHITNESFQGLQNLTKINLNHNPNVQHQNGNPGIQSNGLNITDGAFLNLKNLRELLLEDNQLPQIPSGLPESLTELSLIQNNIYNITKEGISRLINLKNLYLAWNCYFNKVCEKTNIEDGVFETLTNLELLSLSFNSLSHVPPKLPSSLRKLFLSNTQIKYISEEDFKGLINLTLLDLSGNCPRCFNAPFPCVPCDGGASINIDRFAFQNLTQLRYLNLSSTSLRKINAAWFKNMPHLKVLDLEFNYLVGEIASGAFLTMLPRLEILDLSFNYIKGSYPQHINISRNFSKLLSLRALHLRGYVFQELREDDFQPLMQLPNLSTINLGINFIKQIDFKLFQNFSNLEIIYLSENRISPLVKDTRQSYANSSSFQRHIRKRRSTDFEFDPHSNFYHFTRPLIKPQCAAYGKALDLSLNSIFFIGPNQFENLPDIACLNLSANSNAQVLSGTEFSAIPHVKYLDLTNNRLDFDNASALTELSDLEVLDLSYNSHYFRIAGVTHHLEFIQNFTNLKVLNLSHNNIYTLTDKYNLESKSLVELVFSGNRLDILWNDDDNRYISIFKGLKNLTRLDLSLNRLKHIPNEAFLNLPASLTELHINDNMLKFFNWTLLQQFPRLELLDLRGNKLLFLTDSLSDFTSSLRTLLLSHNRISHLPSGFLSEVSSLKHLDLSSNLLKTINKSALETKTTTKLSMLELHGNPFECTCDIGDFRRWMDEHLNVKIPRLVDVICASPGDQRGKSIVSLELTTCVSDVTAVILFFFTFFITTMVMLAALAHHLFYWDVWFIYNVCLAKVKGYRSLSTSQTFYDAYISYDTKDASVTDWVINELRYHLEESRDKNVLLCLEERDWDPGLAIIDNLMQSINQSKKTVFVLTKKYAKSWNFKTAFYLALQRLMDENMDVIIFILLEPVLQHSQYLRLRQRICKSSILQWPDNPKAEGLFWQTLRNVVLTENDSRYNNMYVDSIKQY
Protocol: as §1, §2

[3] = tested on: HCV replicon in Huh-7 luc/neo cells; assay: Suppression of HCV replicon replication by conditioned media from compound-treated PBMC; format: cell-based, HCV type 1 b; conditions: Hepatitis C virus; conditioned media from compound-treated PBMC on Huh-7 luc/neo replicon cells (compounds 74 onward); read-out: PBMC HUH-7 EC50
Protocol: Activation of human TLR7 results in robust production of interferon by plasmacytoid dendritic cells present in human blood. The potential of compounds to induce interferon was evaluated by looking at the antiviral activity in the HCV replicon system upon incubation with conditioned media from peripheral blood mononuclear cells (PBMC). […] The assay utilized the stably transfected cell line Huh-7 luc/neo harboring an RNA encoding a bicistronic expression construct comprising the wild type NS3-NS5B regions of HCV type 1 b translated from an Internal Ribosome Entry Site (IRES) from encephalomyocarditis virus (EMCV), preceded by a reporter gene (Firefly-luciferase) and a selectable marker gene (neoR, neomycine phosphotransferase). The construct is flanked by 5′ and 3′ NTRs (non-translated regions) from HCV type 1 b. Continued culture of the replicon cells in the presence of G418 (neoR) is dependent on the replication of the HCV RNA. The stably transfected replicon cells that replicate HCV RNA autonomously and to high levels, encoding inter alia luciferase, were used for profiling of the conditioned cell culture media.
Briefly, PBMCs were prepared from buffy coats of at least two donors using a standard Ficoll centrifugation protocol. Isolated PBMCs were resuspended in RPMI medium supplemented with 10% human AB serum and 2×10^5 cells/well were dispensed into 384-well plates containing compounds (70 μL total volume). After overnight incubation, 10 μL of supernatant was transferred to 384-well plates containing 2.2×10^3 replicon cells/well in 30 μL (plated the day before). Following 24 hours of incubation, replication was measured by assaying luciferase activity using 40 μL/well Steady Lite Plus substrate (Perkin Elmer) and measured with ViewLux ultraHTS microplate imager (Perkin Elmer). […] Recombinant interferon α-2a (Roferon-A) was used as a standard control compound.

CCCCNc1nc(N)ncc1OCc1cc(OC2Cc3ccccc3C2)c(OC)cn1 [Compound 172]
TLR 7 wt LEC [1]: 0.187 | TLR 8 wt LEC [2]: 2.000 | EC50 [3]: 45 nM

CCCCNc1nc(N)ncc1OCc1cc2ccccc2cn1 [Compound 166]
TLR 7 wt LEC [1]: 0.128 | TLR 8 wt LEC [2]: 0.980 | EC50 [3]: 46 nM

CCCCNc1nc(N)ncc1OCC(C)(O)CC (stereo not drawn) [Compound 104]
TLR 7 wt LEC [1]: >25 | TLR 8 wt LEC [2]: 12.390 | EC50 [3]: > 23800 nM

CCCC(C)Nc1nc(N)ncc1OCCCc1ccccc1 (stereo not drawn) [Compound 112]
TLR 7 wt LEC [1]: 3.960 | TLR 8 wt LEC [2]: 5.560 | EC50 [3]: 3350 nM

CCCCNc1nc(N)ncc1OCCOc1ccc(C#N)cc1 [Compound 126]
TLR 7 wt LEC [1]: 1.000 | TLR 8 wt LEC [2]: 1.020 | EC50 [3]: 264 nM

CCCCNc1nc(N)ncc1OCc1cccc(C(N)=O)n1 [Compound 176]
TLR 7 wt LEC [1]: 0.868 | TLR 8 wt LEC [2]: 0.463 | EC50 [3]: 173 nM

CCCCNc1nc(N)ncc1OCCCc1ccc(OC)c(OC)c1 [Compound 74]
TLR 7 wt LEC [1]: 0.713 | TLR 8 wt LEC [2]: 1.720 | EC50 [3]: 157 nM

CCCCNc1nc(N)ncc1OCCCc1ccc(Cl)cc1 [Compound 109]
TLR 7 wt LEC [1]: 0.790 | TLR 8 wt LEC [2]: 2.230 | EC50 [3]: 393 nM

CCCCNc1nc(N)ncc1OCCOc1cccnc1 [Compound 143]
TLR 7 wt LEC [1]: 1.810 | TLR 8 wt LEC [2]: 0.880 | EC50 [3]: 443 nM

CCCCNc1nc(N)ncc1OCCCc1ccc(OC)cc1OC [Compound 163]
TLR 7 wt LEC [1]: 0.573 | TLR 8 wt LEC [2]: 2.500 | EC50 [3]: 728 nM

CCC[C@@H](CO)Nc1nc(N)ncc1OCc1nccc2ccccc12 [Compound 195]
TLR 7 wt LEC [1]: 0.003 | TLR 8 wt LEC [2]: 0.056 | EC50 [3]: 3 nM

CCCCNc1nc(N)ncc1OCc1cc(C(=O)OCC)ccn1 [Compound 170]
TLR 7 wt LEC [1]: 0.319 | TLR 8 wt LEC [2]: 1.750 | EC50 [3]: 2630 nM

CCCC(CCC)Nc1nc(N)ncc1OCCCc1ccccc1 [Compound 114]
TLR 7 wt LEC [1]: 2.020 | TLR 8 wt LEC [2]: >25 | EC50 [3]: 2000 nM

CCCCNc1nc(N)ncc1OCC(C)(C)O [Compound 105]
TLR 7 wt LEC [1]: >25 | TLR 8 wt LEC [2]: 22.020 | EC50 [3]: 19000 nM

CCCCNc1nc(N)ncc1OCc1cccc(CC(=O)OC)c1 [Compound 137]
TLR 7 wt LEC [1]: 0.757 | TLR 8 wt LEC [2]: 1.760 | EC50 [3]: 22800 nM

CCCC(COC)Nc1nc(N)ncc1OC (stereo not drawn) [Compound 106]
TLR 7 wt LEC [1]: 16.100 | TLR 8 wt LEC [2]: 5.940 | EC50 [3]: 3150 nM

CCCCNc1nc(N)ncc1OCc1ccc(C(F)(F)F)o1 [Compound 119]
TLR 7 wt LEC [1]: 1.720 | TLR 8 wt LEC [2]: 6.120 | EC50 [3]: 193 nM

CCCCNc1nc(N)ncc1OCc1cc(OCC2CC2)c(OC)cn1 [Compound 175]
TLR 7 wt LEC [1]: 0.367 | TLR 8 wt LEC [2]: 2.480 | EC50 [3]: 167 nM

CCCCNc1nc(N)ncc1OCCCc1ccc(F)cc1F [Compound 107]
TLR 7 wt LEC [1]: 2.460 | TLR 8 wt LEC [2]: 3.940 | EC50 [3]: 1590 nM

CCCCNc1nc(N)ncc1OCCOc1ccncc1 [Compound 84]
TLR 7 wt LEC [1]: 0.860 | TLR 8 wt LEC [2]: 0.250 | EC50 [3]: 76 nM

CC[C@H](C)[C@@H](CO)Nc1nc(N)ncc1OCCCc1ccccc1 [Compound 115]
TLR 7 wt LEC [1]: 6.180 | TLR 8 wt LEC [2]: 6.510 | EC50 [3]: 3730 nM

CCCCNc1nc(N)ncc1OCc1cc(C)n(C)n1 [Compound 117]
TLR 7 wt LEC [1]: 0.335 | TLR 8 wt LEC [2]: 1.120 | EC50 [3]: 88 nM

CCCCNc1nc(N)ncc1OCCOc1cc(OC)c(OC)c(OC)c1 [Compound 133]
TLR 7 wt LEC [1]: 1.500 | TLR 8 wt LEC [2]: 3.090 | EC50 [3]: 585 nM

CCCCNc1nc(N)ncc1OCc1ccc(C(F)(F)F)nc1 [Compound 121]
TLR 7 wt LEC [1]: 0.797 | TLR 8 wt LEC [2]: 3.020 | EC50 [3]: 272 nM

CCCC[C@H](Nc1nc(N)ncc1OCCCc1ccccc1)C(=O)OC [Compound 82]
TLR 7 wt LEC [1]: 4.420 | TLR 8 wt LEC [2]: 13.590 | EC50 [3]: 14000 nM

CCCCNc1nc(N)ncc1OCc1cccc(C)n1 [Compound 122]
TLR 7 wt LEC [1]: 0.118 | TLR 8 wt LEC [2]: 0.628 | EC50 [3]: 25 nM

CCCCNc1nc(N)ncc1OCCCc1cc(OC)cc(OC)c1 [Compound 147]
TLR 7 wt LEC [1]: 2.520 | TLR 8 wt LEC [2]: 4.340 | EC50 [3]: 746 nM

CCC[C@@H](CCO)Nc1nc(N)ncc1OCCCc1ccccc1 [Compound 165]
TLR 7 wt LEC [1]: 0.683 | TLR 8 wt LEC [2]: 1.800 | EC50 [3]: 187 nM
